Drawing on PubChem BioAssay (NCI), this text covers GI50 and TGI for 13 compounds.

Test systems include A498 renal; LOX IMVI melanoma; OVCAR-3 ovarian; MCF7 breast; NCI-H460 lung; NCI-H522 lung; SF-295 CNS; OVCAR-8 ovarian; HL-60(TB) leukemia; K-562 leukemia.
Common to all, as to assay: NCI anticancer screen, dose series, 48 h

SMILES strings stand for the structures. Values joined by “and” are separate entries in the source; they are usually repeats but may differ in a detail not shown here. Equal values may be shown once.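 Results reflect a 48-hour exposure of cells in 96-well plates to compound at five concentrations. GI50 = concentration required for 50% inhibition of growth. TGI is the concentration that stops growth completely.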

`COc1ccc2c(c1)sc1nc(-c3ccccc3)c(-c3cccc4ccccc34)n12`: the GI50 in the assay on A498 renal was 0.601 µM; in the assay on LOX IMVI melanoma, 0.713 µM; in the assay on OVCAR-3 ovarian it was 0.35 µM; with MCF7 breast, 0.835 µM; in the assay on NCI-H460 lung, 0.416 µM; in the assay on NCI-H522 lung, 0.661 µM. In addition, the GI50 was 0.415 µM with SF-295 CNS, 0.771 µM in the assay on OVCAR-8 ovarian, 0.148 µM in the assay with HL-60(TB) leukemia and 0.328 µM in the assay on K-562 leukemia. Further, the TGI in the assay on A498 renal was above 30 µM; in the assay on LOX IMVI melanoma, above 100 µM; in the assay with OVCAR-3 ovarian, 1.46 µM; in the assay with MCF7 breast, above 33.4 µM; in the assay on NCI-H460 lung, above 35.2 µM; in the assay on NCI-H522 lung, 28.2 µM. Besides, the TGI in the assay with OVCAR-8 ovarian and in the assay on K-562 leukemia was above 100 µM throughout.

Regarding `Fc1ccc(NC(=S)SCc2ccc3c(c2)OCO3)cc1F`, the TGI is 61.8 µM in the assay with A498 renal; 28.6 µM with LOX IMVI melanoma; above 100 µM in the assay on OVCAR-3 ovarian; 36.2 µM with MCF7 breast; above 100 µM with NCI-H460 lung; 35.4 µM in the assay with NCI-H522 lung. For the same compound, the TGI in the assay on SF-295 CNS was above 100 µM; with OVCAR-8 ovarian it was 35.9 µM; with HL-60(TB) leukemia, 42.6 µM; with K-562 leukemia, 59 µM.

Turning to `Cc1ccc(CN2CCC(C(=O)Nc3ccc(-c4cc5ccccc5[nH]4)cc3)CC2)o1`, the GI50 in the assay with A498 renal was 4.04 µM; with LOX IMVI melanoma, above 100 µM; in the assay with OVCAR-3 ovarian it was above 100 µM; in the assay on MCF7 breast, above 100 µM; with NCI-H460 lung it was above 100 µM; in the assay with NCI-H522 lung, above 100 µM. Moreover, the GI50 was 71 µM with SF-295 CNS, above 100 µM in the assay on OVCAR-8 ovarian, above 100 µM in the assay with HL-60(TB) leukemia and above 100 µM with K-562 leukemia. Besides, the TGI with A498 renal, with LOX IMVI melanoma, in the assay on OVCAR-3 ovarian, in the assay on MCF7 breast, in the assay with NCI-H460 lung and in the assay with NCI-H522 lung was above 100 µM each time. Besides, the TGI with SF-295 CNS, with OVCAR-8 ovarian, with HL-60(TB) leukemia and in the assay with K-562 leukemia was above 100 µM in each case.

As for `O=C1/C(=C/c2ccc(O)c(O)c2)CCC/C1=C\c1ccc(O)c(O)c1`, the TGI was 21.1 µM in the assay on A498 renal; 7.68 µM in the assay with LOX IMVI melanoma; 17.8 µM with OVCAR-3 ovarian; above 48.2 µM with MCF7 breast; 20.1 µM in the assay with NCI-H460 lung; 2.22 µM in the assay with NCI-H522 lung. Also, the TGI in the assay on SF-295 CNS is 22.1 µM; in the assay on OVCAR-8 ovarian it was 4.42 µM; with HL-60(TB) leukemia, above 27.9 µM; in the assay with K-562 leukemia, above 60.1 µM.

As for `CN(C)c1ccc(/C=C\C2=[N+](C)c3ccccc3C2(C)C)cc1`, the GI50 in the assay on A498 renal is 4.38 µM; in the assay on LOX IMVI melanoma, 0.356 µM; in the assay with OVCAR-3 ovarian it was 0.342 µM; with MCF7 breast, 0.455 µM; with NCI-H460 lung, 0.466 µM; in the assay on NCI-H522 lung, 0.703 µM. The GI50 with SF-295 CNS is 0.994 µM; in the assay on OVCAR-8 ovarian, 0.614 µM; in the assay with HL-60(TB) leukemia it was 0.295 µM; with K-562 leukemia, 1.77 µM. The TGI in the assay with A498 renal is 28.2 µM; in the assay on LOX IMVI melanoma, 14.6 µM; in the assay on OVCAR-3 ovarian it was 4.38 µM; in the assay on MCF7 breast, 30.7 µM; in the assay on NCI-H460 lung, 7.16 µM; with NCI-H522 lung, above 67.4 µM. Further, the TGI is above 23.6 µM in the assay with SF-295 CNS, above 41.1 µM with OVCAR-8 ovarian, above 100 µM with HL-60(TB) leukemia and above 100 µM in the assay with K-562 leukemia.

As to `COC([CH2][Hg][n]1cnc2c1c(=O)n(C)c(=O)n2C)CN1C(=O)c2ccccc2S1(=O)=O` (stereo not drawn), the GI50 in the assay with A498 renal, in the assay on LOX IMVI melanoma, with OVCAR-3 ovarian, with MCF7 breast, in the assay on NCI-H460 lung and in the assay on NCI-H522 lung was above 100 µM in each case. The GI50 in the assay on SF-295 CNS was above 100 µM; in the assay on OVCAR-8 ovarian it was above 100 µM; in the assay on HL-60(TB) leukemia it was 53.4 µM; with K-562 leukemia, above 100 µM. Moreover, the TGI in the assay with A498 renal, in the assay with LOX IMVI melanoma, in the assay on OVCAR-3 ovarian, in the assay on MCF7 breast, with NCI-H460 lung and in the assay with NCI-H522 lung was above 100 µM in each case. Also, the TGI in the assay with SF-295 CNS, in the assay on OVCAR-8 ovarian, with HL-60(TB) leukemia and with K-562 leukemia was above 100 µM throughout.

For `CCN1/C(=C\c2cc[n+](CC)c3ccccc23)C=Cc2ccccc21`, the GI50 is 0.187 µM in the assay with A498 renal; 0.179 µM with LOX IMVI melanoma; 0.118 µM with OVCAR-3 ovarian; 0.114 µM in the assay on MCF7 breast; 0.193 µM in the assay with NCI-H460 lung; 0.197 µM in the assay with NCI-H522 lung. Besides, the GI50 in the assay with SF-295 CNS was 0.223 µM; in the assay on OVCAR-8 ovarian it was 0.23 µM; in the assay with HL-60(TB) leukemia, 0.123 µM; with K-562 leukemia it was 0.0477 µM. Also, the TGI is 2.78 µM in the assay on A498 renal; 1.52 µM with LOX IMVI melanoma; 1.08 µM in the assay on OVCAR-3 ovarian; 1.85 µM with MCF7 breast; 1.09 µM with NCI-H460 lung; 10.3 µM in the assay on NCI-H522 lung. Moreover, the TGI came to 2.9 µM in the assay on SF-295 CNS, 13 µM with OVCAR-8 ovarian, 0.82 µM with HL-60(TB) leukemia and 12.8 µM in the assay with K-562 leukemia.

With `CC(=O)OC1OC([C@@H]2c3cccc(O)c3C(=O)c3c(O)cc(C)cc32)C(O)C(O)C1O` (stereo partly drawn), the GI50 is 0.0444 µM in the assay on A498 renal; below 0.0141 µM in the assay with LOX IMVI melanoma; below 0.018 µM in the assay on OVCAR-3 ovarian; 0.282 µM with MCF7 breast; 0.108 µM in the assay on NCI-H460 lung; below 0.0166 µM with SF-295 CNS. Further, the GI50 with OVCAR-8 ovarian was 0.122 µM; with HL-60(TB) leukemia it was 0.0173 µM; in the assay on K-562 leukemia it was 0.0216 µM. Moreover, the TGI in the assay on A498 renal turned out to be 0.358 µM; in the assay on LOX IMVI melanoma it was 0.0481 µM; in the assay on OVCAR-3 ovarian, 0.0485 µM; in the assay with MCF7 breast, 2.78 µM; in the assay with NCI-H522 lung, 0.382 µM; in the assay with SF-295 CNS it was 0.119 µM. In addition, the TGI was 4 µM in the assay on OVCAR-8 ovarian, 0.0493 µM with HL-60(TB) leukemia and 1.39 µM in the assay on K-562 leukemia.

In the case of `O=C(Nc1ccccc1)c1c(O)[nH]c(=S)[nH]c1=O`, the GI50 with A498 renal was 65.2 µM; in the assay with LOX IMVI melanoma, 54 µM; with OVCAR-3 ovarian, 10.9 µM; in the assay on NCI-H460 lung, 29.5 µM; in the assay with NCI-H522 lung, 83 µM; in the assay with OVCAR-8 ovarian it was 41.3 µM. For the same compound, the results for the GI50 in the assay with HL-60(TB) leukemia and in the assay on K-562 leukemia were 80.4 µM and 85.3 µM, respectively. The TGI with A498 renal was 106 µM and > 250 µM; in the assay with LOX IMVI melanoma, 73.6 µM and > 250 µM; in the assay with OVCAR-3 ovarian it was 74.8 µM and 71.3 µM; in the assay on MCF7 breast, 92.8 µM; with NCI-H460 lung it was 101 µM and > 250 µM; with NCI-H522 lung, 58.3 µM and > 250 µM. Also, the TGI in the assay with SF-295 CNS was 108 µM; in the assay with OVCAR-8 ovarian, 76.7 µM and > 250 µM; in the assay on HL-60(TB) leukemia, 67.3 µM and > 250 µM; in the assay with K-562 leukemia, 114 µM and > 250 µM.

As for `Cc1cnc(NCCCN(C)C)c2c1[nH]c1ccc3cc(O)ccc3c12`, the TGI was found to be 3.71 µM with A498 renal; 1.37 µM with LOX IMVI melanoma; 1.59 µM with OVCAR-3 ovarian; 2.15 µM in the assay with MCF7 breast; 1.25 µM in the assay with NCI-H460 lung; 0.624 µM with NCI-H522 lung. Further, the TGI came to 2.89 µM in the assay with SF-295 CNS, 1.96 µM with OVCAR-8 ovarian, 8.37 µM in the assay with HL-60(TB) leukemia and 3.68 µM in the assay on K-562 leukemia.

For `Cc1ccc2c(C)c3c(ccc4ccccc43)c[n+]2c1`, the GI50 in the assay on A498 renal is 5.85 µM; with LOX IMVI melanoma, 17.3 µM; with OVCAR-3 ovarian it was 2.64 µM; in the assay on MCF7 breast, 0.629 µM; with NCI-H460 lung it was 5.1 µM; with NCI-H522 lung it was 15.5 µM. The GI50 with SF-295 CNS is 3.04 µM; with OVCAR-8 ovarian, 6.35 µM; with HL-60(TB) leukemia it was 21.5 µM; in the assay with K-562 leukemia it was 9.3 µM. Further, the TGI with A498 renal is above 100 µM; in the assay on LOX IMVI melanoma, 53.6 µM; with OVCAR-3 ovarian, 16.8 µM; with MCF7 breast it was 25.9 µM; in the assay on NCI-H460 lung, 25.1 µM; with NCI-H522 lung, 38.8 µM. In addition, the TGI with SF-295 CNS was determined as 31.7 µM; in the assay on OVCAR-8 ovarian it was 25.4 µM; in the assay on HL-60(TB) leukemia it was 55.8 µM; with K-562 leukemia it was 47.3 µM.

With `C[C@@H](Oc1cc(-n2cnc3ccc(CN4CCN(C)CC4)cc32)sc1C(N)=O)c1ccccc1C(F)(F)F`, the GI50 is 0.0615 µM and 0.0341 µM in the assay with A498 renal; < 0.018 µM and 0.0231 µM in the assay on LOX IMVI melanoma; < 0.0152 µM and 0.00528 µM in the assay with OVCAR-3 ovarian; < 0.01 µM and 0.00478 µM in the assay on MCF7 breast; < 0.0157 µM and 0.0224 µM in the assay with NCI-H460 lung; < 0.01 µM and 0.00531 µM in the assay with NCI-H522 lung. Also, the GI50 in the assay with SF-295 CNS is 0.0486 µM; in the assay with OVCAR-8 ovarian, < 0.0153 µM and 0.0146 µM; in the assay with HL-60(TB) leukemia it was < 0.01 µM and 0.00595 µM; with K-562 leukemia, 0.00317 µM. For the same compound, the TGI in the assay with A498 renal is 0.982 µM and 0.187 µM; in the assay on LOX IMVI melanoma it was 5.5 µM and > 10 µM; in the assay on OVCAR-3 ovarian, 16.7 µM and > 10 µM; in the assay on MCF7 breast, 15.2 µM and > 10 µM; in the assay on NCI-H460 lung it was 12.5 µM and > 10 µM; in the assay on NCI-H522 lung it was 0.0369 µM. Besides, the TGI is above 10 µM in the assay with SF-295 CNS; 13.6 µM and > 10 µM in the assay on OVCAR-8 ovarian; below 0.0179 µM with HL-60(TB) leukemia.

Consider `Nc1c(C(=O)c2cccc(CCS(N)(=O)=O)c2)cnn1-c1ccc(F)cc1`, for which the GI50 in the assay with A498 renal, with LOX IMVI melanoma, with OVCAR-3 ovarian, in the assay on MCF7 breast, with NCI-H460 lung and in the assay on NCI-H522 lung was above 25 µM throughout. In addition, the GI50 in the assay with SF-295 CNS, in the assay on OVCAR-8 ovarian, in the assay with HL-60(TB) leukemia and in the assay on K-562 leukemia was above 25 µM throughout. Moreover, the TGI in the assay with A498 renal, with LOX IMVI melanoma, with OVCAR-3 ovarian, in the assay on MCF7 breast, in the assay with NCI-H460 lung and in the assay on NCI-H522 lung was above 25 µM throughout. Further, the TGI with SF-295 CNS, in the assay with OVCAR-8 ovarian, with HL-60(TB) leukemia and in the assay on K-562 leukemia was above 25 µM in each case.
